{
  "source": "patent US10238679B2",
  "about": "“Antitumor activity of multi-kinase inhibitors in colorectal cancer” (ENTRECHEM, S.L, priority 2014, dated 2019)",
  "key": {"SW620 cells [1]": {"tested_on": "SW620 cells", "test": "Apoptosis by Annexin V flow cytometry, SW620", "assay_type": "cell-based", "conditions": "48 hours", "experimental": "(§1) Cell cycle analyses and evaluation of apoptosis were performed by flow cytometry using propidium iodide and Annexin V, respectively.\n(§2) For apoptosis analyses, SW620 and HT29 cell monolayers were incubated in trypsin—EDTA, washed twice with cold PBS, and then resuspended in binding buffer (10 mM HEPES free acid [pH 7.4], 140 mM NaCl, 2.5 mM CaCl2) at a concentration of 1×10^6 cells per mL. A total of 1×10^5 cells were incubated for 15 minutes in the dark with Annexin V-APC (BD Biosciences) and propidium iodide (PI) staining solution (5 μL Annexin […], 10 μL of PI [[…] final concentration], 400 μL binding buffer)."}, "[2]": {"tested_on": "phosphorylated γH2AX in SW620 cells", "test": "Western blot of DNA damage marker phosphorylated γH2AX, SW620", "assay_type": "cell-based", "conditions": "500 nM, time dependent up to 24 h", "experimental": "(§3) Western-blot and phospho-array kits were used for evaluation of signaling intermediates. SW620 and HT29 cell lines were grown in DMEM 10% of FBS and at 70% confluence were treated with Formula (III) at 500 nM for 6, 12 and 24 hours. Cells were washed with phosphate-buffered saline (PBS) (137 mM NaCl, 2.7 mM KCl, 8 mM Na2HPO4, 1.5 mM KH2PO4) and lysed in ice-cold lysis buffer (20 mM Tris-HCl [pH 7.0], 140 mM NaCl, 50 mM EDTA, 10% glycerol, 1% Nonidet P-40, 1 μM pepstatin, 1 μg/mL aprotinin, 1 μg/mL leupeptin, 1 mM phenylmethyl sulfonyl fluoride, 1 mM sodium orthovanadate). Lysates were centrifuged at 10000 g at 4° C. for 10 minutes. The protein level in the supernatants was quantified using BCA protein assay (Sigma Aldrich). A total of 50 μg of protein of each sample was used for analysis. Samples were then boiled in electrophoresis sample buffer and placed on 6%-15% sodium dodecyl sulfate-polyacrylamide gel electrophoresis (SDS-PAGE) gels, depending on the molecular weight of the proteins to be analyzed. Briefly, after electrophoresis, proteins in gels were transferred to polyvinylidene difluoride membranes (Millipore Corporation). Membranes were blocked in Tris-buffered saline with Tween (TBST) (100 mM Tris [pH 7.5], 150 mM NaCl, 0.05% Tween 20) containing 1% of bovine serum albumin for 1 h and then incubated overnight with the corresponding antibody. […]"}, "[3]": {"tested_on": "pS6, AKT, Src and Lck in SW620 cells", "test": "Phospho-kinase dot blot array and Western blot, SW620", "assay_type": "cell-based", "conditions": "500 nM, at 6 hours or 12 hours", "experimental": "as §3"}, "[4]": {"conditions": "animal models; background statement; cited from earlier work"}, "SW620 cells [5]": {"tested_on": "SW620 cells", "test": "Cell cycle analysis by flow cytometry (propidium iodide), SW620", "assay_type": "cell-based", "conditions": "500 nM, 24 h", "experimental": "as §1\n(§4) For cell cycle analyses, SW620 and HT29 cells were cultured in 100-mm culture dishes, grown to 70% confluence, and treated with 500 nM Formula (III) for 24 h. Cell monolayers were then incubated in trypsin—EDTA and resuspended in 1 mL of PBS. After three washes with PBS, the cell pellets were resuspended in ice cold 70% ethanol for 2 min and centrifuged 5 min at 1800 rpm. The cell pellets were treated with 1 mL of propidium iodide (PI) staining solution (PBS containing 50 μg/mL of PI, 0.5% Tween 20, 0.1 μg/mL RNase A) (BD Biosciencies) and incubated in the dark for 1 h. DNA content and cell cycle analyses were performed by using a FACS canto II flow cytometer and the CellQuest software (BD Biosciences)."}, "HT29 cells [6]": {"tested_on": "HT29 cells", "test": "MTT metabolization, HT29 cell proliferation", "assay_type": "cell-based", "experimental": "(§5) SW620, HT29 and SW48 were grown in DMEM; this medium was purchased from Sigma Aldrich, supplemented with 10% FBS, 100 mU/mL penicillin, 100 μg/mL streptomycin and 2 mM L-glutamine, in a 5% CO2 atmosphere at 37° C. These colorectal cancer cell lines were obtained from the American Type Culture Collection Cell Biology Collection (ATCC) (Manassas, Va.). The medium was changed every 2 days.\n(§6) Cell proliferation and growth experiments were carried out using 3-(4,5-dimethylthiazol-2-yl)-2,5-diphenyltetrazolium bromide (MTT) uptake assays, where MTT is reduced to purple formazan by the mitochondria of living cells. Increase in cell number is detected by augmented MTT metabolization, and decrease in cell number is reflected by a decrease. SW620, HT29 and SW48 cells were plated at a density of 1×10^4 cells per well in 24-well plates and cultured overnight in DMEM supplemented with 10% FBS. The cells were treated with the drug at different concentrations to plot the dose—response curves in all cancer cell lines using in the study. […] After treatment, each well was replaced with 250 μL of fresh medium containing MTT ([…]) and incubated for 1 hour. The medium was then removed and 500 μL of dimethyl sulfoxide was added to each well. The plate was agitated in the dark for 5 minutes to dissolve the MTT-formazan crystals. The absorbance of the samples was recorded at 562 nm in a multi-well plate reader (BMG labtech). Results were plotted as the mean values of quadruplicates from a representative experiment that was repeated at least two independent times.\n(§7) Combination index values less than 1 indicate synergism, values equal to 1 indicate an additive effect, whereas values greater than 1 indicate antagonism. Combination index values from three independent experiments were generated."}, "[7]": {"tested_on": "SW620, HT29 and SW48 cells", "test": "MTT metabolization, colorectal cancer cell lines (IC50 dose, line not specified)", "assay_type": "cell-based", "conditions": "dose used for time-response curve", "experimental": "as §6"}, "HT29 cells [8]": {"tested_on": "HT29 cells", "test": "Apoptosis by Annexin V flow cytometry, HT29", "assay_type": "cell-based", "conditions": "48 hours", "experimental": "as §1, §2"}, "[9]": {"tested_on": "pS6 and Src in HT29 cells", "test": "Phospho-kinase dot blot array and Western blot, HT29", "assay_type": "cell-based", "conditions": "500 nM, at 6 hours", "experimental": "as §3"}, "[10]": {"tested_on": "phosphorylated γH2AX in HT29 cells", "test": "Western blot of DNA damage marker phosphorylated γH2AX, HT29", "assay_type": "cell-based", "conditions": "500 nM, time dependent up to 24 h", "experimental": "as §3"}, "HT29 cells [11]": {"tested_on": "HT29 cells", "test": "Cell cycle analysis by flow cytometry (propidium iodide), HT29", "assay_type": "cell-based", "conditions": "500 nM, 24 h", "experimental": "as §1, §4"}, "SW620 cells [12]": {"tested_on": "SW620 cells", "test": "MTT metabolization, SW620 cell proliferation", "assay_type": "cell-based", "experimental": "as §5, §6, §7"}, "[13]": {"tested_on": "a range of tyrosine and serine/threonine kinases", "conditions": "biochemical assays; background statement; cited from earlier work"}, "[14]": {"conditions": "doses in the submicromolar (nanomolar) range"}},
  "data": [
    {"smiles": "C[C@]12O[C@H](C[C@H](O)[C@H]1O)n1c3ccccc3c3c4c(c5c6ccccc6n2c5c31)C(=O)NC4=O", "note": "[Formula (III)]", "values": [
      {"measurement": "apoptosis (Annexin staining)", "setting": "SW620 cells [1]", "result": "induction of apoptosis"},
      {"measurement": "phosphorylated levels of γH2AX (DNA damage)", "setting": "[2]", "result": "increase in the phosphorylated levels of γH2AX"},
      {"measurement": "phosphorylation/activation status of kinases pS6, AKT, Src and Lck", "setting": "[3]", "result": "strongly inhibited"},
      {"measurement": "anti-tumoral activity in vivo", "setting": "[4]", "result": "anti-tumoral activity"},
      {"measurement": "toxicities in vivo", "setting": "[4]", "result": "no evidence of toxicities"},
      {"measurement": "effect on cell cycle", "setting": "SW620 cells [5]", "result": "strong arrest in G2/M phase"},
      {"measurement": "half-maximal inhibitory effect (MTT metabolization)", "setting": "HT29 cells [6]", "result": "nanomolar range"},
      {"measurement": "growth inhibition", "setting": "HT29 cells [6]; [14]", "result": "more than 80%"},
      {"measurement": "effect on proliferation compared with other inhibitors", "setting": "HT29 cells [6]; vs lapatinib, sunitinib, crizotinib, BEZ235, NVP-BSK805, dasatinib", "result": "strong effect"},
      {"measurement": "IC50", "setting": "[7]", "result": 500, "unit": "nM"},
      {"measurement": "apoptosis (Annexin staining)", "setting": "HT29 cells [8]", "result": "induction of apoptosis"},
      {"measurement": "phosphorylation/activation status of pS6 and Src", "setting": "[9]", "result": "inhibited"},
      {"measurement": "phosphorylated levels of γH2AX (DNA damage)", "setting": "[10]", "result": "increase in the phosphorylated levels of γH2AX"},
      {"measurement": "effect on cell cycle", "setting": "HT29 cells [11]", "result": "strong arrest in G2/M phase"},
      {"measurement": "half-maximal inhibitory effect (MTT metabolization)", "setting": "SW620 cells [12]", "result": "nanomolar range"},
      {"measurement": "growth inhibition", "setting": "SW620 cells [12]; [14]", "result": "more than 80%"},
      {"measurement": "effect on proliferation compared with other inhibitors", "setting": "SW620 cells [12]; vs lapatinib, sunitinib, crizotinib, BEZ235, NVP-BSK805, dasatinib, 0 to 2 μM, 72 h", "result": "strong effect"},
      {"measurement": "affinity towards and inhibition of kinase activity", "setting": "[13]", "result": "nanomolar and subnanomolar range"}
    ]}
  ]
}
